Data from the NIST ThermoML archive (doi:10.1016/j.jct.2013.06.007).
Where “and” joins values, the source holds several entries; their conditions need not be identical. Equal entries are not always repeated. ± gives the expanded uncertainty stated by the source.

How the values were obtained:
[1] = Molar enthalpy of transition or fusion; settings: Crystal; DSC
[2] = Crystal; DTA

**Q.** What does the source list for `CCOC(=O)NCCOc1ccc(Oc2ccccc2)cc1` [fenoxycarb]?
**A.** Molar enthalpy of transition or fusion [1]: 6.75 kcal/mol and 6.39 kcal/mol; Normal melting temperature [2]: 53.47 ± 0.48 °C and 52.70 ± 0.87 °C
